Laboratory results taken from PubChem BioAssay AID248 (DTP/NCI, 2004).
“And” between values parts separate entries of the source, which are not always exact repeats. Identical values can stand only once. Inconclusive results and toxic doses are left out. No stated cut-off is given here; in the data, active means T/C of 150% or more; inactive means T/C below 125%.

Tested on: L1210 leukemia ip in BDF1 mice, survival T/C
Test: NCI In Vivo Anticancer Drug Screen. Data for tumor model L1210 Leukemia (intraperitoneal) in B6D2F1 (BDF1) mice
Details: endpoint: mean survival time, higher = longer survival
In short: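 Transplantable tumor model; survival measured in treated vs vehicle control mice. Value = treated/control.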

[1] = dose: 100.0 mg/kg/injection, schedule: Q01DX009 (ip), vehicle: saline with Tween-80
[2] = dose: 200.0 mg/kg/injection, schedule: Q01DX009 (ip), vehicle: saline with Tween-80
[3] = dose: 200.0 mg/kg/injection, schedule: Q01DX001 (ip), vehicle: saline with Tween-80
[4] = dose: 400.0 mg/kg/injection, schedule: Q01DX001 (ip), vehicle: saline with Tween-80
[5] = dose: 100.0 mg/kg/injection, schedule: Q04DX003 (ip), vehicle: saline with Tween-80
[6] = dose: 200.0 mg/kg/injection, schedule: Q04DX003 (ip), vehicle: saline with Tween-80
[7] = dose: 400.0 mg/kg/injection, schedule: Q04DX003 (ip), vehicle: saline with Tween-80
[8] = dose: 100.0 mg/kg/injection, schedule: Q04DX002 (ip), vehicle: saline with Tween-80
[9] = dose: 200.0 mg/kg/injection, schedule: Q04DX002 (ip), vehicle: saline with Tween-80
[10] = dose: 400.0 mg/kg/injection, schedule: Q04DX002 (ip), vehicle: saline with Tween-80
[11] = dose: 100.0 mg/kg/injection, schedule: Q01DX009 (ip), vehicle: Klucel (hydroxypropylcellulose) (HPC)
[12] = dose: 200.0 mg/kg/injection, schedule: Q01DX009 (ip), vehicle: Klucel (hydroxypropylcellulose) (HPC)
[13] = dose: 400.0 mg/kg/injection, schedule: Q01DX009 (ip), vehicle: saline with Tween-80
[14] = dose: 100.0 mg/kg/injection, schedule: Q04DX003 (ip), vehicle: Klucel (hydroxypropylcellulose) (HPC)
[15] = dose: 200.0 mg/kg/injection, schedule: Q04DX003 (ip), vehicle: Klucel (hydroxypropylcellulose) (HPC)
[16] = dose: 400.0 mg/kg/injection, schedule: Q04DX003 (ip), vehicle: Klucel (hydroxypropylcellulose) (HPC)

Measured: T/C

O=C(CNC(=O)Nc1cccc(Cl)c1Cl)N/N=C/c1ccccc1O
inactive: dose: 50.0 mg/kg/injection, schedule: Q01DX009 (ip), vehicle: saline with Tween-80 104 % of control | [1] 101 % of control | [2] 96 % of control

N#CCN(CC#N)CCCN(CC#N)CC#N
inactive: dose: 25.0 mg/kg/injection, schedule: Q01DX001 (ip), vehicle: saline with Tween-80 96 % of control | dose: 50.0 mg/kg/injection, schedule: Q01DX001 (ip), vehicle: saline with Tween-80 102 % of control | [3] 102 % of control and 90 % of control | [4] 93 % of control

S=C1SCC(c2ccccc2)S1 (stereo unspecified)
inactive: [5] 92 % of control | [6] 92 % of control | [7] 89 % of control

C=CC(OC)OC
inactive: dose: 25.0 mg/kg/injection, schedule: Q04DX003 (ip), vehicle: saline 95 % of control | dose: 50.0 mg/kg/injection, schedule: Q04DX003 (ip), vehicle: saline 93 % of control

CCN(CC)CCCC(C)Nc1cc(N)nc2nc(-c3ccc(Cl)cc3)c(-c3ccc(Cl)cc3)nc12 (stereo unspecified)
inactive: dose: 37.5 mg/kg/injection, schedule: Q01DX009 (ip), vehicle: Klucel (hydroxypropylcellulose) (HPC) 95 % of control | dose: 37.5 mg/kg/injection, schedule: Q04DX003 (ip), vehicle: Klucel (hydroxypropylcellulose) (HPC) 98 % of control | dose: 75.0 mg/kg/injection, schedule: Q01DX001 (ip), vehicle: other 97 % of control | dose: 75.0 mg/kg/injection, schedule: Q01DX009 (ip), vehicle: Klucel (hydroxypropylcellulose) (HPC) 90 % of control | dose: 75.0 mg/kg/injection, schedule: Q04DX003 (ip), vehicle: Klucel (hydroxypropylcellulose) (HPC) 102 % of control | dose: 150.0 mg/kg/injection, schedule: Q04DX003 (ip), vehicle: Klucel (hydroxypropylcellulose) (HPC) 93 % of control

Cc1[nH]c2ccccc2c(=O)c1CCC(=O)O
inactive: [8] 88 % of control | [9] 91 % of control | [10] 91 % of control

c1ccc(C(c2ccccc2)c2ccncc2)cc1
inactive: [8] 87 % of control | [9] 90 % of control | [10] 87 % of control

O=S1OCCS1 (stereo unspecified)
inactive: dose: 13.0 mg/kg/injection, schedule: Q01DX Z (sc), vehicle: saline 100 % of control | dose: 36.0 mg/kg/injection, schedule: Q01DX Z (sc), vehicle: saline 100 % of control

CO[As](OC)c1ccc(N=Nc2ccc(N(C)C)cc2)cc1
inactive: dose: 1.56 mg/kg/injection, schedule: Q04DX003 (ip), vehicle: Klucel (hydroxypropylcellulose) (HPC) 100 % of control | dose: 3.13 mg/kg/injection, schedule: Q04DX003 (ip), vehicle: Klucel (hydroxypropylcellulose) (HPC) 100 % of control | dose: 6.25 mg/kg/injection, schedule: Q04DX003 (ip), vehicle: Klucel (hydroxypropylcellulose) (HPC) 92 % of control

C(#CCOc1ccccc1)COc1ccccc1
inactive: [5] 97 % of control | [6] 97 % of control | [7] 97 % of control

O=C(CCl)NC(CO)C(=O)O (stereo unspecified)
inactive: [1] 89 % of control | [5] 103 % of control | [2] 87 % of control | [6] 94 % of control

Cc1ccccc1NC(=O)Nc1ccc(Nc2ccccc2)cc1
inactive: [11] 97 % of control | [12] 91 % of control | dose: 400.0 mg/kg/injection, schedule: Q01DX009 (ip), vehicle: Klucel (hydroxypropylcellulose) (HPC) 100 % of control

C=C(Cl)CSCCO
inactive: [5] 92 % of control | [6] 97 % of control | [7] 97 % of control

CC(C)CC(=O)C=C(C(F)(F)F)C(F)(F)F
inactive: dose: 100.0 mg/kg/injection, schedule: Q01DX001 (ip), vehicle: saline with Tween-80 91 % of control | [3] 96 % of control | [4] 93 % of control

c1ccc(CCc2ccncc2)cc1
inactive: [1] 87 % of control | [2] 88 % of control | [13] 86 % of control

C=CCNC(=O)N(CC)C(=NCC)c1ccc(NC(=O)c2ccc(C(=O)Nc3ccc(C(=NCC)N(CC)C(=O)NCC=C)cc3)cc2)cc1
inactive: dose: 3.87 mg/kg/injection, schedule: Q01DX015 (ip), vehicle: methylcellulose (MC) 104 % of control

CN(C)c1ccc(C(C#N)(c2ccc(N(C)C)cc2)c2ccc(N(C)C)cc2)cc1
inactive: [11] 95 % of control | [14] 103 % of control | [12] 97 % of control | [15] 106 % of control | [16] 90 % of control

[Br][Ce]([Br])[Br]
inactive: dose: 100.0 mg/kg/injection, schedule: Q04DX003 (ip), vehicle: saline 91 % of control | dose: 200.0 mg/kg/injection, schedule: Q04DX003 (ip), vehicle: saline 94 % of control | dose: 400.0 mg/kg/injection, schedule: Q04DX003 (ip), vehicle: saline 94 % of control

CN(C)c1ccc(NC(=S)Nc2ccc(N(C)C)cc2)cc1
inactive: [4] 88 % of control

COCCCNc1ccc(S(=O)(=O)c2ccc(N)cc2)cc1
inactive: [1] 103 % of control | [2] 95 % of control | [13] 97 % of control

COC(=O)c1sccc1C=O
inactive: dose: 50.0 mg/kg/injection, schedule: Q01DX001 (ip), vehicle: saline 103 % of control | dose: 100.0 mg/kg/injection, schedule: Q01DX001 (ip), vehicle: saline 100 % of control | [14] 100 % of control | dose: 100.0 mg/kg/injection, schedule: Q04DX003 (ip), vehicle: acetone 98 % of control | dose: 200.0 mg/kg/injection, schedule: Q01DX001 (ip), vehicle: saline 100 % of control | [15] 104 % of control | dose: 200.0 mg/kg/injection, schedule: Q04DX003 (ip), vehicle: acetone 102 % of control | dose: 400.0 mg/kg/injection, schedule: Q01DX001 (ip), vehicle: saline 97 % of control | [16] 105 % of control | dose: 400.0 mg/kg/injection, schedule: Q04DX003 (ip), vehicle: acetone 89 % of control
